Source: patent US5959109A, “Compounds and methods for increasing endogenous levels of corticotropin-releasing factor” (Neurocrine Biosciences, Inc., priority 1996, dated 1999)
Where two headings read alike, the source gives them in different places.

Target: T1, human recombinant CRF-BP (Homo sapiens, UniProt P24387)
T1 construct: made in house
T1 sequence (P24387 25-322): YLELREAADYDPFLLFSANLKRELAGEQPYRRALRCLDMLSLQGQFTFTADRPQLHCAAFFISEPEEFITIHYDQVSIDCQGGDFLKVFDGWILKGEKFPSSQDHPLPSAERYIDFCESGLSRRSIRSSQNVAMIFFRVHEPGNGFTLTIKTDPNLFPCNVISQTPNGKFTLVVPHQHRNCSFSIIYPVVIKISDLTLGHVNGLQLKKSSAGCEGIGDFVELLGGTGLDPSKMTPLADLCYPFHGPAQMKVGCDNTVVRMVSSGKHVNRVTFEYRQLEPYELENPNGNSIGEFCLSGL
Assay: LIRMA: displacement of 125I-h/rCRF from CRF-BP, Ki
Type: binding
Protocol: In LIRMA CRF-BP isolated from brain tissue, serum, or cells expressing a recombinant form, is added to wells of a 96-well plate, to small polypropylene microfuge tubes, or to glass borosilicate tubes in a binding buffer (0.02% NP-40 in 50 mM phosphate-buffered saline). ^125 I-h/rCRF (New England Nuclear) and the candidate ligand inhibitor at 10 μM are added and the reaction is incubated for 1 hour at room temperature. An appropriately diluted anti-CRF-BP antibody, such as a rabbit anti-hCRF-BP (Potter et al., Proc. Natl. Acad. Sci. USA 89:4192-4196, 1992) is added to each tube, and after further incubation, bound complexes are precipitated by the further addition of a goat anti-rabbit antibody. The precipitate containing ^125 I-CRF is collected by centrifugation and the amount of radioactivity in the pellet is determined by a gamma counter. If the candidate ligand inhibitor displaces CRF from CRF-BP, the pellets will contain less radioactivity in comparison to controls in which no candidate peptide is added. Maximum inhibition (i.e., 100%) of the binding of ^125 I-h/rCRF to the CRF-BP is defined by the amount of radioactivity left in the pellets after incubation with 10 μM of the CRF-BP peptide ligand h/rCRF (6-33). Thus, the binding potency of the candidate ligand inhibitor will be measured relative to the potency of the standard h/rCRF (6-33).
Thus, a ligand having a Ki of less than that of hCRF will bind more strongly to hCRF-BP than will hCRF itself, and a ligand having a higher value will have a relatively lower binding affinity.
The assay is performed in 600 μl polypropylene microfuge tubes or a 96-well plate. First, 50 μl of a 250 ng/ml of purified recombinant CRF-BP is added to 150 μl of PBS binding buffer (50 mM sodium phosphate, 0.15M NaCl, and 0.02% NP-40). Next, ^125 I-h/r CRF at a final concentration of 200 pM and 50 μl of a 10-100 μM concentration of the ligand inhibitor are added and incubated for 1 hour at room temperature. To the reaction, 50 μl of anti-CRF-BP antibody, 5144, diluted 1:1000 with assay buffer is added to each tube and allowed to bind for a further 1 hour at room temperature. The total volume in all tubes is adjusted to 300 μl with assay buffer. Bound complexes are precipitated by the addition of 200 μl of preprecipitated goat anti-rabbit (GAR) second antibody at 1:20 in 1% normal rabbit serum, 4% PEG, 50 mM sodium phosphate, 0.1% sodium azide, followed by incubation for 1 hour at room temperature. The antibody-bound ^125 I-CRF precipitate is then collected by centrifugation (3000×g) at 4° C. for 20 minutes in a Beckman GS-15R centrifuge. Using a Beckman Biomer 1000 robotic workstation, the tubes are aspirated and washed once with 600 μl of PBS plus 0.02% NP-40. Tubes containing the pellets are then transferred to 12×74 mm counting tubes and counted in a gamma counter.
Inhibitory binding affinity constant (Ki) values are determined using the method of Munson et al., Anal. Biochem. 107:220, 1980.

[1] = read-out: inhibitory binding affinity constant (Ki)
[2] = inhibitory binding affinity constant (Ki)

SMILES | Ki [1] [µM] | Ki [2] [µM]
O=c1oc2ccc(Cl)cc2c(O)c1C=NC(=S)Nc1ccc(Cl)cc1 [Compound 1, 3-(p-chlorophenyl)thioureidomethylene-4-oxo-6-chloro-coumarin] | < 0.05 | –
O=c1oc2ccc(Cl)cc2c(O)c1C=NC(=S)Nc1ccc(Cl)c(Cl)c1 [Compound 2] | < 0.05 | –
O=c1oc2ccc(Cl)cc2c(O)c1C=NC(=S)Nc1ccc(C(F)(F)F)cc1 [Compound 6] | < 0.05 | –
O=c1oc2ccc(Cl)cc2c(O)c1C=NC(=S)Nc1c(Cl)cc(Cl)cc1Cl [Compound 7] | < 0.05 | –
O=c1oc2ccc(Cl)cc2c(O)c1C=NC(=S)Nc1ccc(C2CCCCC2)cc1 [Compound 10] | < 0.05 | –
O=c1oc2ccc(Cl)cc2c(O)c1C=NC(=S)Nc1ccc(-c2ccccc2)cc1 [Compound 19] | < 0.05 | –
O=c1oc2ccc(Cl)cc2c(O)c1C=NC(=S)Nc1ccccc1-c1ccccc1 [Compound 20] | < 0.05 | –
O=c1oc2ccc3ccccc3c2c(O)c1C=NC(=S)Nc1ccc(Cl)cc1 [Compound 29] | < 0.1 | –
O=c1oc2c(Cl)cccc2c(O)c1C=NC(=S)Nc1ccc(Cl)cc1 [Compound 31] | < 0.05 | –
O=c1oc2c(Cl)cc(Cl)cc2c(O)c1C=NC(=S)Nc1ccc(Cl)cc1 [Compound 32] | < 0.05 | –
O=c1oc2ccc(Cl)cc2c(O)c1C=Nc1nc2c(Cl)cccc2s1 [Compound 36] | < 0.05 | –
COc1cccc2sc(N=Cc3c(O)c4cc(Cl)ccc4oc3=O)nc12 [Compound 40] | < 0.1 | –
O=c1oc2cc(Cl)ccc2c(O)c1C=Nc1nc2c(Cl)cccc2s1 [Compound 44] | < 0.05 | –
O=c1oc2cc(Cl)ccc2c(O)c1C=Nc1nc2ccc(Cl)cc2s1 [Compound 45] | < 0.05 | –
CCn1c(O)c(C=NC(=S)Nc2c(Cl)cc(Cl)cc2Cl)c(=O)n(CC)c1=S [Compound 49] | – | < 0.1
O=c1c(C=NC(=S)Nc2ccc(Cl)cc2)c(O)n(Cc2ccccc2)c(=S)n1Cc1ccccc1 [Compound 53] | – | < 0.1
CCCn1c(O)c(C=NC(=S)Nc2ccc(Cl)cc2)c(=O)n(CCC)c1=S [Compound 54] | – | < 0.1

SMILES | Ki [1] [µM] | Ki [2] [µM]
CCn1c(=O)c(C=Nc2nc3ccccc3[nH]2)c(O)n(CCc2ccccc2)c1=S [Compound 58-1] | < 0.1 | –
CCn1c(O)c(C=Nc2nc3ccccc3[nH]2)c(=O)n(CC)c1=S [Compound 58] | – | < 0.05
CCn1c(O)c(C=Nc2nc3c(C)cccc3s2)c(=O)n(CC)c1=S [Compound 72] | – | < 0.1
CCn1c(=O)c(C=Nc2nc3c(OC)cccc3s2)c(O)n(CCc2ccccc2)c1=S [Compound 73-1] | – | < 0.1
CCn1c(O)c(C=Nc2nc3c(OC)cccc3s2)c(=O)n(CC)c1=S [Compound 73] | – | < 0.05
CCn1c(O)c(C=Nc2nc3ccc(Cl)cc3s2)c(=O)n(CC)c1=S [Compound 74] | – | < 0.1
CCn1c(=O)c(C=Nc2nc3ccc(C)cc3s2)c(O)n(CCc2ccccc2)c1=S [Compound 75-1] | – | < 0.1
CCn1c(O)c(C=Nc2nc3ccc(C)cc3s2)c(=O)n(CC)c1=S [Compound 75] | – | < 0.05
CCn1c(=O)c(C=Nc2nc3ccc(OC)cc3s2)c(O)n(CCc2ccccc2)c1=S [Compound 76-1] | – | < 0.1
CCn1c(O)c(C=Nc2nc3ccc(OC)cc3s2)c(=O)n(CC)c1=S [Compound 76] | – | < 0.05
CCn1c(O)c(C=Nc2nc3ccc([N+](=O)[O-])cc3s2)c(=O)n(CC)c1=S [Compound 79] | – | < 0.1
CCn1c(O)c(C=Nc2nc3c(C(F)(F)F)cccc3s2)c(=O)n(CC)c1=S [Compound 80] | – | < 0.1
CCn1c(O)c(C=Nc2nc3cc([N+](=O)[O-])ccc3s2)c(=O)n(CC)c1=S [Compound 82] | – | < 0.05
CCn1c(=O)c(C=Nc2nc3cc(C)c(C)cc3[nH]2)c(O)n(CCc2ccccc2)c1=S [Compound 85-1] | – | < 0.05
CCn1c(O)c(C=Nc2nc3cc(C)c(C)cc3[nH]2)c(=O)n(CC)c1=S [Compound 85] | – | < 0.05
CCn1c(O)c(C=Nc2nc3cc(C)ccc3[nH]2)c(=O)n(CC)c1=S [Compound 86] | – | < 0.05
CCn1c(=O)c(C=Nc2nc3c(Cl)cccc3s2)c(O)n(CCc2ccccc2)c1=S [Compound 95-1] | – | < 0.1
